Test results published in patent publication US20030105167A1, “Treatment of opthalmic diseases” (priority 2001, published 2003).

Experiments:
retinal ganglion cells = test: Survival of axotomized retinal ganglion cells after intraorbital optic nerve transection; format: in vivo; conditions: ovarectomized adult female rats, twice daily subcutaneous injection in oil, two days prior to eight days following transection; counted after an additional 4 weeks
Experimental: The drugs were dissolved in sesame oil (Penta) at 100 ug/ml. Adult female rats to be used in these experiments were first ovarectomized. Rats were then subjected to intraorbital transection of the optic nerve, a procedure that leads to progressive degeneration of the majority of retinal ganglion cells. Cells survive for a few days and then die abruptly such that by one week only 50% survive and by two weeks only 10% survive. Axotomy is well known to lead to the death of retinal ganglion cells by an apoptotic process, causing classical cytochemical alterations characteristic of programmed cell death.
From two days prior to eight days following optic nerve transactions, 17β-estradiol, ent-17β-estradiol, or appropriate amount of vehicle control sample was administered to the animals by a twice daily subcutaneous injection of compound in oil at 100 ug/ml (see above), such that the final concentration delivered was 100 ug/. If the protective compounds to be used are in a water soluble formulation, they can, alternatively, be delivered by a single intravitreal injection. […]
After an additional 4 weeks, the retinal ganglial cells were labeled by retrograde staining with the carbocyanine dye, 4Di-10Asp, which was applied to the nerve stump. Three days later animals were sacrificed and surviving retinal cells were counted in retinal whole mounts. […]

[1] = system: SHSY-5Y neuroblastoma cells; test: FRET assay of Ca+2-induced mitochondrial membrane potential (ΔΨm) collapse in neuroblastoma cells; format: cell-based; conditions: FIG. 1; right shift of dose response curve compared to control
Experimental: With reference to FIG. 1, mitochondria rapidly take up exogenous Ca^+2 to a maximum value before undergoing an irreversible loss of ΔΨm. ΔΨm was monitored after exposure to Ca^+2 concentrations ranging from 0 to 50 uM using a fluorescence resonance energy transfer (FRET) assay (Dykens and Stout, 2001). Cells were preincubated with 17β-estradiol and 17α-estradiol at 0.5 uM for 2.5 hrs. prior to Ca^+2 challenge, which was imposed by adding Ca^+2 directly to cells that had been permeabilized with digitonin (0.008%) final concentration, 5 min). The response, calculated as area under the curve, was plotted versus log Ca^+2 concentration using sigmoid regression analysis.
The excitation dye in the FRET ΔΨm assay is nonyl acridine orange (NAO). NAO is an exceptionally selective stain for cardiolipin, a lipid found intracellularly almost exclusively (>99%) in the mitochondrial inner membrane. Its staining of the inner membrane is independent of ΔΨm. […]
Because uptake and retention of TMR depends on ΔΨm, at a given dye concentration, the extent of quenching of NAO by TMR reflects the magnitude of ΔΨm. […] The corresponding loss of proximity abolishes quenching of NAO, so that loss of ΔΨm is detected as an increase in NAO fluorescence.

[2] = system: Transformed rat retinal ganglion cells (RGC-5 cells); test: FRET assay of Ca+2-induced ΔΨm collapse in transformed retinal ganglion cells; format: cell-based; conditions: FIG. 2; for extent of mitochondrial failure at the highest Ca+2 concentration: P<0.05 via ANOVA; for extent of mitochondrial collapse compared to buffer-treated controls: compound 5 minutes prior to Ca+2
Text: Transformed rat retinal ganglion cells (RGC-5 cells) were produced by transforming Sprague-Dawley rat retinal cells from postnatal day I rats with replication incompetent Ψ2 EIA virus and was originally established to help illuminate the basic mechanisms underlying RGC apoptosis in glaucoma (Krishnomoorthy, et al., 2001). The cells express the specific cellular marker, Thy-1, consistent with their retinal ganglion cell origin. Confirmation of Thy-1 expression was made by RT-PCR, immunocytochemistry and immunoblot analysis. […] The toxicity response with glutamate has an EC50 of about 50 uM. Importantly, transformed RGC cells undergo TUNEL-positive apoptotic-mediated cell death upon serum deprivation, indicating the presence of classical apoptosis pathways induced by mitochondrial dysfunction and/or failure.
Possible mitochondrial responses of our compounds are evaluated in intact RGC-5 cells using an assay for mitochondrial ΔΨm which is based on fluorescence energy transfer (FRET) between two dyes that colocalize to the mitochondria. The FRET assay circumvents the confounding variables of plasma membrane potential and the low flourcscence efficiency typical of single potentiometric dyes (Dykens and Stout, 2001). Transformed retinal ganglion cells (RGC-5) were plated at a concentration of 60K cells/well twenty-four hours prior to the experiment. The cells were permeabilized in place with 0.08% digitonin. Cells were exposed to 17β-estradiol, 17α-estradiol, and a non-hormonal PPC, Compound H (see Example 5), for 5 minutes prior to the addition of Ca^+2.
The excitation dye in the FRET ΔΨm assay is nonyl acridine orange (NAO). NAO is an exceptionally selective stain for cardiolipin, a lipid found intracellularly almost exclusively (>99%) in the mitochondrial inner membrane. Its staining of the inner membrane is independent of ΔΨm. The second dye is tetramethylrhodamine (TMR), a potentiometric dye that is sequestered into the mitochondrial matrix as a Nernstian function of ΔΨm and imposed concentration. It is the specificity of NAO staining for cardiolipin, combined with the absolute prerequisite for close proximity of both dyes, that allows this FRET assay to report ΔΨm without interference from plasma membrane potential.
Because uptake and retention of TMR depends on ΔΨm, at a given dye concentration, the extent of quenching of NAO by TMR reflects the magnitude of ΔΨm. Dissipation of ΔΨm, in response to […], elevated Ca+2 load, or respiratory […], results in efflux of TMR from the mitochondrion. The corresponding loss of proximity abolishes quenching of NAO, so that loss of ΔΨm is detected as an increase in NAO fluorescence.

cell culture models = conditions: doses as low as; cited from earlier work
[3] = system: mouse HT-22 hippocampal cells; test: Protection against glutamate toxicity, calcein AM viability; format: cell-based; conditions: glutamate 10 mM, 16 hours, representative study; read-out: Calculated EC50 for protection of cell viability
Experimental: For instance, in this study, mouse HT-22 hippocampal cells were cultured in DMEM supplemented with 10% fetal calf serum. Cells were plated and simultaneously treated with glutamate (10 mM) and one of the test compounds individually, for instance compound H (also referred to as Compound 4565 in FIG. 2 and one of many protective PPCs disclosed in PCT publications WO02/36605 and WO00/63228), below or positive control 17β-estradiol (E), at various doses between 10 nM and 10 µM. After 16 hours, cell viability was determined using the calcein AM fluorescence (Excitation/Emission 485/530 […]) in a Bio-Tex Microplate Fluorescence Reader.

retinal ganglion layer = conditions: administered prior to the insult; several days following reperfusion; cited from earlier work
[4] = system: Trabecular meshwork cells; test: Survival of primary trabecular meshwork cells under toxic conditions (live-dead dyes); format: cell-based; conditions: hydrogen peroxide 100 uM, 24 hours, compound 2nM
Experimental: Trabecular meshwork cells used here were grown from fresh explants obtained from normal donors according to the procedures described in Agarwal et al., (1999) Exp Eye Res., Vol. 68, pp. 583 90 and Hogg et al., (2000) Invest Ophthalmol Vis. Sci., Vol. 41, pp. 1091-8. Cells were toxic conditions by exposure to hydrogen peroxide at 100 uM for 24 hours, which typically kills at least 50% of cells. With different batches of cells, the hydrogen peroxide concentration necessary to obtain 50% cell death frequently needs to be determined empirically. Trabecular cell viability was assessed using commercially available live-dead dyes. Other stains such as stains for DNA fragmentation or annexin binding are also suitable.
Compounds C and D, above, were initially dissolved at lmg/ml in absolute ethanol and diluted in culture medium to a final concentration of 2nM. To control for possible ethanol effects in the treated wells, all batches of media used here as were supplemented with absolute ethanol at appropriate concentrations. Cultured trabecular cells were incubated under toxic conditions with either compound C, compound D or no compound added for a period of 24 hours. Trabecular cell viability was assessed using commercially available live-dead dyes.

[5] = system: Human retinal pigment epithelial cells (RPE340 cells); test: Survival of retinal pigment epithelial cells under hyperoxia (Trypan blue exclusion); format: cell-based; conditions: 40% O2 hyperoxia, 5 days, compound 2 nM
Experimental: Human retinal pigment epithelial cells (RPE340 cells) were grown and subjected to conditions of hyperoxia according to Honda et al., (2001) Invest Ophthalmol Vis. Sci., Vol. 42, pp. 2139-44. The cells were subjected to either 40% O2 or 20% O2 (control) for the duration of the experiment. These conditions are known to induce apoptotic cell death.
Compounds A and B, above, were initially dissolved at 1 mg/ml in absolute ethanol and diluted in culture medium to a final concentration of 2 nM. To control for possible ethanol effects in the treated wells, all batches of media used here were supplemented with absolute ethanol at appropriate concentrations. Cells were incubated under hyperoxic conditions with either compound A, compound B or no compound added for a period of 5 days. Effects on cell viability and growth were monitored by Trypan blue exclusion.

[6] = system: Transformed rat retinal ganglion cells (RGC-5 cells); conditions: read-out: EC50 of toxicity response; cited from earlier work

In the case of `C[C@@]12CC[C@H]3c4ccc(O)cc4CC[C@@H]3[C@H]1CC[C@H]2O` (single isomer, unassigned; ent-17) [ent-17β-estradiol], the “number of surviving retinal ganglial cells compared to the controls” value (retinal ganglion cells) is reported as 3 fold.

With `C[C@]12CC[C@@H]3c4ccc(O)cc4CC[C@H]3[C@@H]1CC[C@H]2O` [17α-estradiol] the “amount of Ca+2 required to induce ΔΨm collapse” value [1] was “substantially increase”, the “extent of mitochondrial failure at the highest Ca+2 concentration” value [2] was “significantly lowered” and the “extent of mitochondrial collapse compared to buffer-treated controls” value [2] was “moderated”. For the same molecule, the “dose giving substantial cytoprotection” value (cell culture models) was 0.2 nM.

For `C[C@]12CC[C@@H]3c4ccc(O)cc4CC[C@H]3[C@@H]1CC[C@@H]2O` [17β-estradiol], the EC50 [3] is listed as 2.2 µM, the “cell density in the retinal ganglion layer” value (retinal ganglion layer) is listed as “significantly higher” and the “amount of Ca+2 required to induce ΔΨm collapse” value [1] is listed as “substantially increase”. For the same molecule, the “extent of mitochondrial failure at the highest Ca+2 concentration” value [2] was “significantly lowered”, the “extent of mitochondrial collapse compared to buffer-treated controls” value [2] was “moderated” and the “dose giving substantial cytoprotection” value (cell culture models) was 0.2 nM. The “number of surviving retinal ganglial cells compared to the controls” value (retinal ganglion cells) was 3 fold.

In the case of `C[C@]12CC[C@@H]3c4cc(C56CC7CC(CC(C7)C5)C6)c(O)cc4CC[C@H]3[C@@H]1CCC2=O` [C, 2-(1-Adamantyl)-3-hydroxyestra-1,3, 5 (10)-trien-17-one], the “survival of trabecular cells” value [4] is reported as “significantly improve survival”.

For `CC(C)(C)c1cc2c(cc1O)CC[C@@H]1[C@@H]2CC[C@]2(C)C(=O)CC[C@@H]12` [D, 2-(1-tertbutyl)-3-hydroxyestra-1,3, 5 (IO)-trien-17-one], the “survival of trabecular cells” value [4] was “significantly improve survival”.

With `C[C@]1(CO)CC[C@@H]2c3ccc(O)cc3CC[C@H]2C1` [compound A, [2S-(2a, 4aα, 10aβ)]-1,2,3,4,4a,9,10,10a-octahydro-7-hydroxy-2-methyl-2-phenanthrenemethanol] the “protection from cell death” value [5] was “protect these cells from cell death”.

In the case of `C[C@]1(C=O)CC[C@@H]2c3ccc(O)cc3CC[C@H]2C1` [compound B, [2S-(2a, 4aα, 10aβ)]-1,2,3,4,4a, 9, 10, 10a-octahydro-7-hydroxy-2-methyl-2-phenanthrenecarboxaldehyde], the “protection from cell death” value [5] is reported as “protect these cells from cell death”.

For `N[C@@H](CCC(=O)O)C(=O)O` [glutamate], the EC50 [6] is listed as roughly 50 µM.
